The text below walks through data of patent US20140212949A1, “METHOD FOR PREPARING MICROVESICULAR ADAM15” (INDUSTRY-ACADEMIC COOPERATION FOUNDATION, YONSEI UNIVERSITY, priority 2011, published 2014).

Common to all, as to format: cell-based, human
In one assay the test system is MDAH-2774 cells. Nature of the assay: Effect of PKC inhibitor on secretion of exosome-associated ADAM15. The settings on record: PMA and indicated concentrations of calphostin C for 24 h.
A further assay relates to HEK293F cells. Kind of assay: Exosomal ADAM15 enrichment in transfected HEK293F cells (immunoblotting). The conditions noted are these: 5 ng/Ml PMA for 24 h. The protocol: FIG. 3 verifies that ADAM15-rich exosomes have a high binding affinity for integrin αvβ3 and prevents interactions between integrin αvβ3 and vitronectin. […] FIGS. 3B and 3C show immunoblotting analysis. Prior to exosome isolation, transfected cells were stimulated with or without 5 ng/Ml PMA for 24 h, and the isolated exosomes were analyzed by immunoblotting analysis with the indicated antibodies. The exosomes were incubated with purified integrin αvβ3 (FIG. 3B) or α5β1 (FIG. 3C), followed by ultracentrifugation. The precipitates were analyzed by immunoblotting analysis. In the graphs, the immunoblotting results are represented by the relative intensity. […] Exosomes were incubated with purified integrin αvβ3 on a vitronectin-coated plate, and bound integrins were detected by anti-integrin αvβ3 antibody. […] After 2-h incubation, the number of bound cells was determined by MTT assay (OD: 540 nm). […]
(§1) Cells were incubated with or without PMA in serum-free medium or medium containing 5% FBS for 24 h. […] Protein concentration was measured by a modified Bradford assay (Bio-Rad Laboratories, Hercules, Calif.). […] The tubes were then ultracentrifuged at 100,000×g for 2.5 h in a Beckman SW 55 Ti rotor, and fractions with different densities were sequentially collected from the top of the tube and analyzed for exosomes containing ADAM15.
For orientation: A western blot detects proteins with antibodies after separation by electrophoresis.

Assay [1] deals with MCF-7 cells. Nature of the assay: Exosome-associated ADAM15 release from MCF-7 cells (sequential centrifugation, immunoblotting). The settings on record: 5 ng/Ml PMA for 24 h; 100,000×g pellet. The procedure:
FIG. 2 verifies that released ADAM15 is associated with exosomes, and exosome-mediated ADAM15 is secreted by PMA-stimulated PKC activation. […] Conditioned medium of MCF-7 cells treated with or without 5 ng/Ml PMA for 24 h was subjected to sequential centrifugation as follows: 300×g (P1), 1,200×g (P2), 10,000×g (P3), 100,000×g (P4), and 100,000×g after filtering through a 0.22-μm pore size filter (P4′). Pellets from each stage were subjected to western blotting analysis using an anti-ADAM15 cytoplasmic domain antibody. Arrows indicate pro-ADAM15 (P) and mature ADAM15 (M), respectively. […] After ultracentrifugation at 100,000×g, the pellets were analyzed by immunoblotting with antibody to ADAM15 cytoplasmic domain. […] Isolated exosomes were analyzed by immunoblotting with ADAM15 antibody. […] The percent changes in fluorescence intensity associated with the presence of ADAM15 are shown.
as §1

Assay [2] relates to MCF-7 cells. Kind of assay: Semi-quantitative RT-PCR analysis of ADAM15 mRNA in MCF-7 cells. The conditions noted are these: 5 ng/Ml PMA for the indicated times.
The subject of a further assay is THP-1 cells. Nature of the assay: Release of exosomal ADAM15 from THP-1 cells. The settings on record: THP-1 cells incubated with PMA in serum-free medium for 24 h. The protocol: (§2) FIG. 9 verifies that the release of exosomal ADAM15 is further induced by LPS stimulation in differentiated THP-1 macrophages. […] THP-1 cells were incubated with PMA in serum-free medium for 24 h. Arrows indicate pro-ADAM15 and mature ADAM15, respectively. Total protein bands of exosomes were shown by Coomassie blue staining (middle penal). In the graph of the right panel, data are represented as the mean±standard deviation of three experiments. […] PMA-differentiated THP-1 cells were washed with PBS and further cultured for 2˜3 days. THP-1 macrophages were incubated with LPS in serum-free medium for 18 h. Exosomes were isolated from conditioned media. Arrows indicate pro-ADAM15 and mature ADAM15, respectively. Total protein bands of exosomes were shown by Coomassie blue staining (middle penal). The right panel represents the mean and standard deviation of three experiments. […] THP-1 cells were treated with or without PMA and/or LPS in serum-free medium for 18 h. […]
as §1

Assay [3] has as its system MCF-7 cells. Kind of assay: Flow cytometric analysis of cell- and exosomal-surface expression of ADAM15. The settings on record: flow cytometry; 5 ng/Ml PMA for 24 h. The procedure:
FIG. 2 verifies that released ADAM15 is associated with exosomes, and exosome-mediated ADAM15 is secreted by PMA-stimulated PKC activation. […] Conditioned medium of MCF-7 cells treated with or without 5 ng/Ml PMA for 24 h was subjected to sequential centrifugation as follows: 300×g (P1), 1,200×g (P2), 10,000×g (P3), 100,000×g (P4), and 100,000×g after filtering through a 0.22-μm pore size filter (P4′). Pellets from each stage were subjected to western blotting analysis using an anti-ADAM15 cytoplasmic domain antibody. Arrows indicate pro-ADAM15 (P) and mature ADAM15 (M), respectively. […] Isolated microvesicles from conditioned medium of MCF-7 cells treated with 5 ng/Ml PMA were subjected to sucrose gradient centrifugation. Each fraction was concentrated prior to SDS-PAGE. […] After ultracentrifugation at 100,000×g, the pellets were analyzed by immunoblotting with antibody to ADAM15 cytoplasmic domain. […] Isolated exosomes were analyzed by immunoblotting with ADAM15 antibody. […] The percent changes in fluorescence intensity associated with the presence of ADAM15 are shown.
Flow cytometric analysis of exosomes was performed as previously described with minor modifications (Thery et al., 2001). […] Flow cytometry was performed on a FACSCalibur (BD Biosciences), and data were analyzed using WinMDI software version 2.8 (The Scripps Research Institute, La Jolla, Calif.).
For orientation: A flow cytometer gives signals particle by particle.

Assay [4] has as its system MCF-7 cells. Nature of the assay: ADAM15 release from MCF-7 cells into conditioned medium and levels in cell lysates (western blotting). The protocol:
FIG. 1 verifies that ADAM15 is released into the extracellular space. […] MCF-7 cells were incubated with 5 ng/Ml PMA in serum-free RPMI 1640 medium. P indicates pro-ADAM15 and M indicates mature ADAM15. In the results of the lower panel, data are represented as the mean±standard deviation of four experiments. *P<0.01; Student's t test. […] Cells were treated as described in the drawing. Arrows indicate pro-ADAM15 (P) and mature ADAM15 (M), respectively.
Cells were lysed in buffer containing 50 Mm Tris-HCl, pH 7.5, 5 mM EDTA, 150 mM NaCl, 1% Triton X-100, and protease inhibitor cocktail (Roche Applied Science, Indianapolis, Ind.) for 1 h at 4° C. and then centrifuged. The soluble portion of the lysate was used for western blotting, which was performed by separation of reduced or non-reduced samples on SDS-PAGE, followed by electroblotting to nitrocellulose membranes and detection of bound antibody by enhanced chemiluminescence (Amersham Biosciences, Pittsburgh, Pa.).
There are several studies showing that various membrane proteins are secreted into the extracellular space through ectodomain shedding or microvesicle release (van Kilsdonk et al., 2010). Here, we examined whether ADAM15 protein is released from human breast cancer MCF-7 cells into conditioned medium. Mature ADAM15 was detected in the conditioned medium by immunoblotting analysis with an antibody against ADAM15 extracellular domain (FIG. 1A). […] In MCF-7 cells, both the pro and mature forms of ADAM15 were detected. […] The mRNA levels of ADAM15 after PMA stimulation were also assessed. […] We further investigated whether released ADAM15 was generated by ectodomain shedding.

Another assay has as its system THP-1 macrophages. Nature of the assay: Release of exosomal ADAM15 from differentiated THP-1 macrophages. The conditions noted are these: THP-1 macrophages incubated with LPS in serum-free medium for 18 h. The protocol:
as §2, §1

Take calphostin C: in the assay with MDAH-2774 cells, the “PMA-stimulated ADAM15 release” value is on record as “successfully blocked”.

Regarding `CCCCCCCCCCCCCC(=O)O[C@@H]1[C@@H](C)[C@@]2(O)[C@@H](C=C(CO)C[C@]3(O)C(=O)C(C)=C[C@@H]23)[C@@H]2C(C)(C)[C@]12OC(C)=O` [PMA, phorbol 12-myristate 13-acetate], in the assay with HEK293F cells, the “exosomal ADAM15 in exosomes of ADAM15-transfected cells” value was “further exosomal enrichment”. Also, the “amount of exosomal ADAM15” value in the assay on MCF-7 cells [1] is “increased”. For the same molecule, the “ADAM15 mRNA levels” value in the assay on MCF-7 cells [2] is listed as “unchanged”. For the same molecule, the “release of exosomal ADAM15” value in the assay with THP-1 cells is on record as “effectively increased”. For the same molecule, in the assay on MCF-7 cells [3], the “exosomal-surface ADAM15” value is recorded as “increase” and the “plasma membrane-associated ADAM15” value was “decrease”. Also, the “ADAM15 release into conditioned medium” value in the assay on MCF-7 cells [4] (5 ng/Ml PMA, serum-free RPMI 1640, antibody against ADAM15 extracellular domain) is “largely increased”. For the same molecule, the “other membrane proteins ADAM10 and E-cadherin in cells” value with MCF-7 cells [4] (cell lysates after PMA stimulation) was “unchanged”. In addition, the “pro and mature forms of ADAM15 in cells” value in the assay on MCF-7 cells [4] (cell lysates, time after PMA stimulation, barely detectable after 24 hrs) is reported as “decreased with time”.

For the molecule lipopolysaccharide [LPS], the “release of exosomal ADAM15” value with THP-1 macrophages is “enhanced”.
